{"source": "patent US6579556B2", "about": "“Ambient stable beverage” (Lipton, division of Conopco, Inc., priority 2000, dated 2003)", "assay_type_in_all_cases": "cell-based", "key": {"[1]": {"system": "bacteria, Gluconobacter sp. 222", "test": "Bacteria experiments, growth after heat + pasteurisation adjunct", "conditions": "0-100 ppm, growth measured visually at 14 days", "protocol": "Rows of 30 ml tubes containing 10 ml soft drink, pH 3.4, were equilibrated at the required temperature for 7 minutes in a water bath, before inoculation with 10^4 cells/ml of the bacteria, Gluconobacter sp. 222. Tubes were held at temperature for 2 minutes before being cooled rapidly in cold water for 5 minutes. Tubes were then incubated for 14 days at 25° C. to allow surviving bacteria to grow out. At 14 days growth was measured visually."}, "[2]": {"system": "yeast Saccharomyces cerevisiae X2180-1B", "test": "Fungicidal activity / MIC at 50° C. versus 30° C., yeast survival in YEPD broth pH 3.4", "protocol": "In the table the minimum inhibitory concentration (MIC) is given for each compound as well as the molecular weight (M.W.), the logPoct and a rating of its importance. […] The logPoct, that is the logarithm of the partition coefficient of the relevant compound in octanol and thus a measure of its […], was determined using […]™ software from the CHEMOFFICE ULRA ENHANCED 2000™ software package (version 5.5) that is commercially available from CambridgeSoft.\n(§1) YEPD contained glucose, 20 g/l, peptone 20 g/l and yeast extract 10 g/l. Rows of 30 ml tubes containing 10 ml YEPD, pH 3.4, were equilibrated at the required temperature for 7 minutes in a water bath, before inoculation with 10^4 cells/ml of the yeast Saccharomyces cerevisiae X2180-1B. Tubes were held at temperature for 10 minutes before being cooled rapidly in cold water for 5 minutes. Tubes were then incubated for 48 hours at 25° C. to allow surviving yeasts to grow out, and form discrete colonies.\nas §1, §1, §1"}, "[3]": {"system": "yeast Saccharomyces cerevisiae X2180-1B", "test": "Ready to Drink tea experiments, yeast growth after heat + pasteurisation adjunct", "conditions": "0-200 ppm, OD 600 nm at 14 days", "protocol": "Rows of 30 ml tubes containing 10 ml RTD tea, pH 3.4, were equilibrated at the required temperature for 7 minutes in a water bath, before inoculation with 10^4 cells/ml of the yeast Saccharomyces cerevisiae […]-1B. Tubes were held at temperature for 2 minutes before being cooled rapidly in cold water for 5 minutes. Tubes were then incubated for 14 days at 25° C. to allow surviving yeasts to grow out. At 14 days growth was measured by optical density at 600 nm in x11 diluted samples. […] Rows of 30 ml tubes containing 10 ml RTD tea, pH 3.4, were equilibrated at the required temperature for 7 minutes in a water bath, before inoculation with 10^4 cells/ml of the yeast Saccharomyces cerevisiae […]-1B. Tubes were held at temperature for 2 minutes before being cooled rapidly in cold water for 5 minutes. Tubes were then incubated for 14 days at 25° C. to allow surviving yeasts to grow out. At 14 days growth was measured by optical density at 600 nm in x11 diluted samples. […] Rows of 30 ml tubes containing 10 ml RTD tea, pH 3.4, were equilibrated at the required temperature for 7 minutes in a water bath, before inoculation with 10^4 cells/ml of the yeast Saccharomyces cerevisiae […]-1B. Tubes were held at temperature for 2 minutes before being cooled rapidly in cold water for 5 minutes. Tubes were then incubated for 14 days at 25° C. to allow surviving yeasts to grow out. At 14 days growth was measured by optical density at 600 nm in x11 diluted samples. […] Rows of 30 ml tubes containing 10 ml RTD tea, pH 3.4, were equilibrated at the required temperature for 7 minutes in a water bath, before inoculation with 10^4 cells/ml of the yeast Saccharomyces cerevisiae […]-1B. Tubes were held at temperature for 2 minutes before being cooled rapidly in cold water for 5 minutes. Tubes were then incubated for 14 days at 25° C. to allow surviving yeasts to grow out. At 14 days growth was measured by optical density at 600 nm in x11 diluted samples. […] Rows of 30 ml tubes containing 10 ml RTD tea, pH 3.4, were equilibrated at the required temperature for 7 minutes in a water bath, before inoculation with 10^4 cells/ml of the yeast Saccharomyces cerevisiae […]-1B. Tubes were held at temperature for 2 minutes before being cooled rapidly in cold water for 5 minutes. Tubes were then incubated for 14 days at 25° C. to allow surviving yeasts to grow out. At 14 days growth was measured by optical density at 600 nm in x11 diluted samples. […] Rows of 30 ml tubes containing 10 ml RTD tea, pH 3.4, were equilibrated at the required temperature for 7 minutes in a water bath, before inoculation with 10^4 cells/ml of the yeast Saccharomyces cerevisiae […]-1B. Tubes were held at temperature for 2 minutes before being cooled rapidly in cold water for 5 minutes. Tubes were then incubated for 14 days at 25° C. to allow surviving yeasts to grow out. At 14 days growth was measured by optical density at 600 nm in x11 diluted samples. […] Rows of 30 ml tubes containing 10 ml RTD tea, pH 3.4, were equilibrated at the required temperature for 7 minutes in a water bath, before inoculation with 10^4 cells/ml of the yeast Saccharomyces cerevisiae […]-1B. Tubes were held at temperature for 2 minutes before being cooled rapidly in cold water for 5 minutes. Tubes were then incubated for 14 days at 25° C. to allow surviving yeasts to grow out. At 14 days growth was measured by optical density at 600 nm in x11 diluted samples. […] Rows of 30 ml tubes containing 10 ml RTD tea, pH 3.4, were equilibrated at the required temperature for 7 minutes in a water bath, before inoculation with 10^4 cells/ml of the yeast Saccharomyces cerevisiae […]-1B. Tubes were held at temperature for 2 minutes before being cooled rapidly in cold water for 5 minutes. Tubes were then incubated for 14 days at 25° C. to allow surviving yeasts to grow out. At 14 days growth was measured by optical density at […] in x11 diluted samples."}}, "data": [{"smiles": "CCCCCCCCCCOC(C)=O", "note": "[Decyl acetate]", "values": [{"measurement": "effect of heat+pasteurisation adjunct on bacteria", "setting": "[1]; Ready to Drink tea or synthetic soft drink pH 3.4, 2 minutes at temperature", "result": "remarkable combined synergistic effect"}, {"measurement": "effect of pasteurisation adjunct at low temperature on growth", "setting": "[1]; Ready to Drink tea or synthetic soft drink pH 3.4, low temperature", "result": "little effect"}, {"measurement": "fungicidal activity at 30° C.", "setting": "[2]; 30° C.", "result": "no fungicidal activity"}, {"measurement": "fungicidal activity when heated to 50° C.", "setting": "[2]; 50° C.", "result": "significant fungicidal activity"}, {"measurement": "MIC", "setting": "[2]; Saccharomyces cerevisiae, minimum inhibitory concentration, 50° C., read-out: MIC50", "result": 1000, "unit": "µM"}, {"measurement": "Importance", "setting": "[2]; rating as pasteurisation adjunct", "result": "High (High effects compounds, most preferred, generally showed at least a 5 fold decrease in MIC, minimum inhibitory concentration at 50 °C compared with 30° C.)"}, {"measurement": "effect of heat+pasteurisation adjunct on yeast growth", "setting": "[3]; Ready to Drink tea 0.14% tea pH 3.4, held at temperature 2 minutes", "result": "remarkable combined synergistic effect"}, {"measurement": "effect of pasteurisation adjunct at low temperature on yeast growth", "setting": "[3]; Ready to Drink tea 0.14% tea pH 3.4, low temperature", "result": "little effect"}]}]}
